In ChEMBL document CHEMBL1201862, “PubChem BioAssay data set” (2004):
Active and inactive are the calls of the source.

Experiments:
[1] = tested on: HEK293; assay: NOD2 signaling inhibitors in MDP-stimulated cells, cell-based, uHTS, luminescence (AID 2001); format: functional; settings: Homo sapiens
[2] = inhibitors of SNCA 5'UTR-driven reporter translation, confirmation, H4 neuroglioma cells, luminescence (AID 1988); format: functional, cell-based
[3] = inhibitors of firefly luciferase expression or activity, dose response, H4 neuroglioma cells, luminescence (AID 1990); format: functional, cell-based
[4] = target: Nucleotide-binding oligomerization domain-containing protein 2 (Homo sapiens, UniProt Q9HC29); assay: NOD2 signaling inhibitors, cell-based, luminescence, uHTS, HEK293 (AID 1566); format: functional
[5] = microbe, parasite or virus in culture; format: functional; settings: Mycobacterium tuberculosis
[6] = inhibitors of intracellular T. cruzi replication, confirmation, NIH3T3 host cells, beta-gal luminescence (AID 2044); format: functional, cell-based;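 note: intracellular parasites grown in NIH/3T3 mouse fibroblasts as host cells; luminescent beta-galactosidase reporter signal from transgenic T. cruzi replicating inside host cells; inhibitors lower the luminescence signal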
[7] = tested on: HEK293; assay: cells; format: functional, cell-based; settings: Homo sapiens
[8] = cytotoxicity toward NIH3T3 fibroblasts, dose response, counter-screen, cell-based, ATP luminescence, mouse fibroblasts (AID 2010); format: functional;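 note: cells exposed to compound for about 90 hours before reading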
[9] = tested on: INS1; assay: beta cell apoptosis inhibitors, cytokine rescue, dose response, luminescence, retest (AID 449756); format: functional, cell-based; settings: Rattus norvegicus;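 note: cell death triggered by IL-1 beta plus TNF-alpha plus IFN-gamma mixture; protective hits raise ATP signal compared with cytokine alone wells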
[10] = tested on: HEK293; assay: cells; format: functional, cell-based; settings: Homo sapiens; remark: listed apart in the source
[11] = THP-1 cell cytotoxicity, dose response, cytotoxicity control for non-replicating M. tuberculosis project (AID 489025); format: functional
[12] = tested on: HEK293; assay: cells; format: functional, cell-based; settings: Homo sapiens; remark: listed apart in the source
[13] = tested on: HEK293; assay: NOD1 signaling inhibitors, primary screen, cell-based, luminescence, uHTS (AID 1578); format: functional; settings: Homo sapiens
[14] = cells; format: functional
[15] = Luminescence Cell-Based Dose Response HTS to Identify Inhibitors of 5'UTR Stem-Loop Driven Prion Protein mRNA Translation in H4 Neuroglioblastoma Cells. [Related pubchem assays: 1827 (Project Summary), 1813 (Primary HTS)]; format: functional
[16] = Vero E6 cell cytotoxicity, dose response, cytotoxicity control for non-replicating M. tuberculosis project, secondary assay (AID 492998); format: functional, VeroE6; settings: Vero C1008
[17] = target: G-protein coupled receptor 55 (Homo sapiens, UniProt Q9Y2T6); assay: GPR55 antagonists blocking LPI-driven arrestin recruitment, primary screen, imaging, U2OS, beta-arrestin-GFP, LPI agonist (AID 2013); format: functional;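 note: antagonist potency measured as reduced agonist-driven arrestin aggregation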
[18] = tested on: Vero; assay: cytotoxicity of synthesized analogs in Vero 76, SAR follow-up, cytotoxicity control for West Nile virus antiviral project, Vero 76 cells (AID 2414); format: functional; settings: Chlorocebus sabaeus
[19] = tested on: Vero; assay: West Nile virus CPE inhibition, SAR follow-up, cell-based, synthesized analogs (AID 2238); format: functional; settings: Chlorocebus sabaeus
[20] = tested on: Vero; assay: Vero E6 cell cytotoxicity, SAR follow-up, cytotoxicity control for West Nile virus antiviral project, synthesized analogs (AID 2244); format: functional; settings: Chlorocebus sabaeus
[21] = target: T1, Coagulation factor XII (Homo sapiens, UniProt P00748); assay: Factor XIIa Dose Response Confirmation from Single Well HTS. [Related pubchem assays (depositor defined):AID701]; format: functional
T1 sequence (P00748 whole entry): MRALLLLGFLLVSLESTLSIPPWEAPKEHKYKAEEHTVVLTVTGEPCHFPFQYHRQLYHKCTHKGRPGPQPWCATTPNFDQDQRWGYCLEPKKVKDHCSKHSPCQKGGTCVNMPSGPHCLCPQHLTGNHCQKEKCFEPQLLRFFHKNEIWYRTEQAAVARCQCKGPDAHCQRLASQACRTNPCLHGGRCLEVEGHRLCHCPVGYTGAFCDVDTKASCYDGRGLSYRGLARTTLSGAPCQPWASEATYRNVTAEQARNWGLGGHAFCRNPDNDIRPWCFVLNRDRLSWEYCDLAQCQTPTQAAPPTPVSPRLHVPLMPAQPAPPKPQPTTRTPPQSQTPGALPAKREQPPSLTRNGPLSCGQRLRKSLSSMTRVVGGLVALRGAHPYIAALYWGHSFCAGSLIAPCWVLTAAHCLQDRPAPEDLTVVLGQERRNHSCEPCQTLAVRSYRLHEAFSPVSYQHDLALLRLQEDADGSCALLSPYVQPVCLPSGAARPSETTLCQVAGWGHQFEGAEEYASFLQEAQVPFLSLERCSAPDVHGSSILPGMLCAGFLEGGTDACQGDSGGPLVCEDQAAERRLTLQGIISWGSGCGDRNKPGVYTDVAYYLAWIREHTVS

[22] = target: T2, Bcl-2-related protein A1 (Mus musculus, UniProt Q07440); format: functional;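 note: confirmatory dose–response counterscreen on Bfl-1, used to check hits from a UBC13 polyubiquitin inhibitor campaign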
T2 sequence (Q07440 whole entry): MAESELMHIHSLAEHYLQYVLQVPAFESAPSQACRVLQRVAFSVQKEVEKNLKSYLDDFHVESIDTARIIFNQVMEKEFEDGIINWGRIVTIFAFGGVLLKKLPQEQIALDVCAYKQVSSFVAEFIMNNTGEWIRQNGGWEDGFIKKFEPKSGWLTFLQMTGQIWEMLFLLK

[23] = target: T3, Type-1 angiotensin II receptor (Homo sapiens, UniProt P30556); assay: AT1 receptor agonists, dose response, selectivity assay for APJ receptor agonist project, cell-based, uHTS hits (AID 488865); format: functional;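 note: beta-arrestin recruitment to AT1 measured by enzyme fragment complementation luminescence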
T3 sequence (P30556 whole entry): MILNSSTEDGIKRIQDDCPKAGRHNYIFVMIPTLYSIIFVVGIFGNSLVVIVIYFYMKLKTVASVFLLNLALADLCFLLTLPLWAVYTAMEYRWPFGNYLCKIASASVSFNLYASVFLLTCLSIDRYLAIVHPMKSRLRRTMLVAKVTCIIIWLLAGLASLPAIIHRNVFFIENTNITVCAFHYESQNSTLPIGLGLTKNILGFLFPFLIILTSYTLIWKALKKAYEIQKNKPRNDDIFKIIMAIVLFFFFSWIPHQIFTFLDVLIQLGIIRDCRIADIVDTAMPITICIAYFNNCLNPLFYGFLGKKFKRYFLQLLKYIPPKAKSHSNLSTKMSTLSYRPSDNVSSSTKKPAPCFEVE

[24] = cytotoxicity toward DRD oncogenic fibroblasts, dose response, cell-based, non-viral oncogenic, luminescence (AID 1934); format: functional; settings: Homo sapiens
[25] = tested on: BJ; assay: cytotoxicity toward BJ-TERT fibroblasts, dose response, cell-based, RAS-independent, luminescence (AID 1933); format: functional; settings: Homo sapiens
[26] = off-target signal loss in HeLa-CEM21 co-culture – HeLa F-luc CTL cells, cherry-picked, counter-screen for HIV-1 Env fusion inhibitor project, dose response (AID 652040); format: functional, cell-based;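 note: potency for signal decrease marking cytotoxic or nonspecific inhibition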
[27] = inhibitors of clade B AD8 Env fusion, dose response, cell-based, cherry-pick (AID 652062); format: functional;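 note: luciferase signal from cell-cell fusion driven by HIV-1 clade B AD8 Env; potency is for inhibitors of fusion seen as a drop in luminescence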
[28] = target: T4, Ubiquitin-conjugating enzyme E2 N (Homo sapiens, UniProt P61088); format: functional
T4 sequence (P61088 whole entry): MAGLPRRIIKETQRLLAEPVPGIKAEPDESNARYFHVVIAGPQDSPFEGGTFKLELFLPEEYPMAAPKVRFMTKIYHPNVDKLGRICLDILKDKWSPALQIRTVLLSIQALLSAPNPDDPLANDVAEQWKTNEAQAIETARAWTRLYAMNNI

[29] = ZM109 Env clade C HIV-1 fusion inhibitors, dose response, HeLa effector, CEM target cells, luciferase, cherry-pick (AID 652058); format: functional, cell-based
[30] = CEM21 lymphoblast cell cytotoxicity, dose response, cytotoxicity control for viral fusion inhibitor project, CellTiter-Glo luminescence, cherry-picked (AID 652042); format: functional, cell-based;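 note: potency for signal decrease meaning cytotoxicity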
[31] = target: T4, Ubiquitin-conjugating enzyme E2 N; format: functional; remark: listed apart in the source
[32] = tested on: BJ; assay: cells; format: functional, cell-based; settings: Homo sapiens
[33] = tested on: BJ; assay: cytotoxicity toward BJ-TERT-LT-ST fibroblasts, dose response, cell-based, RAS-independent, luminescence (AID 1935); format: functional; settings: Homo sapiens;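 note: BJ fibroblasts immortalized with TERT plus LT and ST oncogenes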
[34] = inhibitors of HIV Env-driven cell fusion, dose response, cherry-pick (AID 652057); format: functional, cell-based

Sequence of G-protein coupled receptor 55 (Q9Y2T6 whole entry): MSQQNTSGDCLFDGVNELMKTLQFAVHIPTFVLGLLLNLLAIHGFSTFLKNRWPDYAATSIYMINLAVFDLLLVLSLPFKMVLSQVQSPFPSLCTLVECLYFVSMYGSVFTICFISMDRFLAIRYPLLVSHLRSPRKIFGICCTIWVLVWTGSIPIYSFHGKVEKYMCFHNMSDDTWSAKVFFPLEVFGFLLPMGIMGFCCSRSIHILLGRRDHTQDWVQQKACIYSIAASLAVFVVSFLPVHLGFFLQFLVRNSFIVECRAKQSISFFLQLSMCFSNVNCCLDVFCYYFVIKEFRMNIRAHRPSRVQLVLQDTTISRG
Sequence of Nucleotide-binding oligomerization domain-containing protein 2 (Q9HC29 whole entry, the tested form may be a part): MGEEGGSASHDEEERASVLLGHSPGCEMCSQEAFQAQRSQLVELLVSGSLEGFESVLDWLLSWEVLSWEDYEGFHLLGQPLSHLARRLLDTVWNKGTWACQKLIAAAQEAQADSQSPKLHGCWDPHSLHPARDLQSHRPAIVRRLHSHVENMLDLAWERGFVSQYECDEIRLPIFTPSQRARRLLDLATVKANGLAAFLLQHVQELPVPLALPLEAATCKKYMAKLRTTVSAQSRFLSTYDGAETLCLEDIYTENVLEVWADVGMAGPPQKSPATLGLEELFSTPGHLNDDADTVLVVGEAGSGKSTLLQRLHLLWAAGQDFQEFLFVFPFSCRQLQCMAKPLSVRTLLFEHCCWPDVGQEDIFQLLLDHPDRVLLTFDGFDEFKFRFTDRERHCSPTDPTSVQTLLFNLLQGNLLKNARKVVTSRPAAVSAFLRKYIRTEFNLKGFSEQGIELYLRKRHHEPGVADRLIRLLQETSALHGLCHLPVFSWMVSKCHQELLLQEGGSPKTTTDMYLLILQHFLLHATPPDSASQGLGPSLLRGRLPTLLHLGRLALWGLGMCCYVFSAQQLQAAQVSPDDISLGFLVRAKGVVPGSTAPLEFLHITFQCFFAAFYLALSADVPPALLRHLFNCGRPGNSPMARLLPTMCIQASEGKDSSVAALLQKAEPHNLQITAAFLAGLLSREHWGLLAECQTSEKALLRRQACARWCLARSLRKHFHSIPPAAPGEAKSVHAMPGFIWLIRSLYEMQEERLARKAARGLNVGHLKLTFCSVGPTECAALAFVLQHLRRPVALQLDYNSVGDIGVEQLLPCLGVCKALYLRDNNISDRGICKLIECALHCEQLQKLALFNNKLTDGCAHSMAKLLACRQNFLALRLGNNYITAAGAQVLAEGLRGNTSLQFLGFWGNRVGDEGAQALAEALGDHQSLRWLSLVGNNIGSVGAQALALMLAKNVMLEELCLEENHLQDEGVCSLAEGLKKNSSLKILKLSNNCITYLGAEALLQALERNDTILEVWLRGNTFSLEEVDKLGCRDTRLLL

## Cc1cc(N/N=C/c2ccccc2[N+](=O)[O-])nc(-n2nc(C)cc2C)n1
[1]
  IC50: 6.54 µM (inactive)
[2]
  EC50: > 120 µM (not active)
[3]
  EC50: 13.3 µM (active)
[4]
  EC50: > 20 µM (inactive)
[5]
  CC50: 15.5 µM (active)
[6]
  EC50: 2.26 µM (active)
[7]
  IC50: > 20 µM (inactive)
[8]
  EC50: 7.48 µM (active)
[9]
  AC50: 2.77 µM (active)
[10]
  IC50: > 20 µM (inactive)
[11]
  CC50: 4.01 µM (active)
[12]
  IC50: 15.6 µM (active)
[13]
  EC50: 6.21 µM (active)
[14]
  IC50: 600 nM (active)
[15]
  EC50: 13.1 µM (active)
[16]
  CC50: 6.96 µM (active)

## N#C/C(=C/c1c[nH]nc1-c1cccc(Br)c1)C(=O)O
[17]
  IC50: 1.12 µM (active)

## O=C(CSc1nc2ccccc2c(=O)n1-c1ccccc1)Nc1ccc2c(c1)CCC2
[18]
  CC50: > 66.6 µM (active)
[19]
  IC50: 15.5 µM (active)
[20]
  CC50: > 40 µM (active)

## Cc1ccc(NC(=O)C2(S(=O)(=O)c3ccc(C)cc3)CC2)cc1
[21]
  IC50: > 50 µM (inactive)

## COc1ccc2sc(N(CCCN(C)C)C(=O)c3ccc(S(=O)(=O)N4CCc5ccccc5C4)cc3)nc2c1
[22]
  IC50: > 20 µM (inactive)
[23]
  EC50: > 100 µM (inactive)
[24]
  EC50: 5.14 µM (inconclusive)
[25]
  EC50: 2.75 µM (inconclusive)
[26]
  AC50: 8.3 µM (active)
[27]
  AC50: 6.84 µM (active)
[28]
  IC50: 8.54 µM (active)
[29]
  AC50: 9.11 µM (active)
[30]
  AC50: 3.7 µM (active)
[31]
  IC50: 8.44 µM (active)
[6]
  EC50: 0.228 µM (active)
[32]
  EC50: 10 µM (active)
[8]
  EC50: 5.73 µM (active)
[33]
  EC50: 4.5 µM (inconclusive)
[34]
  AC50: 6.44 µM (active)
